These results are taken from EP1172443A1, “METHOD FOR SCREENING CYSTEINE PROTEASE INHIBITOR” (YAMANOUCHI PHARMACEUTICAL CO. LTD., priority 1999, dated 2000).

Peptide text beside a SMILES is read from it. * marks the point of attachment. Cbz = O=C(OCc1ccccc1)*; CH2F = FC*

For assay [1], the target named is T1, caspase 3 (Homo sapiens, UniProt P42574).
T1 construct: the N-terminal region encoding a protein with a molecular weight of about 17 kDa (p17); C-terminal region encoding a protein with a molecular weight of about 12 kDa (p12); made in house; host or cells: Escherichia coli BL21 (DE3) pLysS, plasmid pET3a
T1 sequence (P42574 29-175 limits assumed): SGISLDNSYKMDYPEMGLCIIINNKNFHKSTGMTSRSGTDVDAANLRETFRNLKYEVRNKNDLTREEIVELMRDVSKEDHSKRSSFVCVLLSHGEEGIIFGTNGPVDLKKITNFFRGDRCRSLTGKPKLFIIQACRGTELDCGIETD
T1 sequence (P42574 176-277 limits assumed): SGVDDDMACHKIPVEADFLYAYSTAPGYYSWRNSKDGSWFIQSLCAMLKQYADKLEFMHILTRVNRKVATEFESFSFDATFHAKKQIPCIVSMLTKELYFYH
Briefly: Screening method of caspase 3 inhibitor, in the absence of zinc ion (fluorogenic substrate Ac-Asp-Glu-Val-Asp-MCA). Particulars: for inhibition at 100 µM: at 100 µM in the absence of zinc ion, read-out: enzyme activity inhibited. It is filed as biochemical. As for the experimental part: (§1) From human brain cDNA, the N-terminal region encoding a protein with a molecular weight of about 17 kDa (p17) and C-terminal region encoding a protein with a molecular weight of about 12 kDa (p12) were amplified by PCR, and then subcloned into an Escherichia coli expression plasmid (pET3a). Using these plasmids, a host bacterium for expressing proteins (BL21 (DE3) pLysS) was transformed. Then, the transformed bacterium was cultured in M9 medium and an active caspase 3 was prepared. Firstly, fungus body recovered from M9 medium was broken by sonication and an inclusion body was recovered by centrifugation. The inclusion body was solubilized under denatured conditions using 3M guanidine solution, and after mixing with p17 polypeptide and p12 polypeptide, diluted with a dialysis solution. The whole was left at room temperature for 1 hour at this situation, and after regeneration, concentrated. After the sample was dialyzed to exchange the buffer solution, insoluble proteins were removed by ultracentrifugation (100,000 X G, 30 minutes). Upon quantitative protein determination, about 30 mg of a protein was recovered.
Solution A comprising composition of 50 mM HEPES, pH 7.5, 10% (w/v) saccharose, and 0.1% (w/v) 3-[(3-cholamidopropyl)dimethylammonio]-1-propane sulfonate (CHAPS) was used as the base of a liquid for enzymatic reaction with adding a test compound, if necessary. A 10 ng/100 µL human caspase 3 solution (Solution B: Solution A + 10 mM dithiothreitol (DTT)) and a test compound at different concentrations were mixed and the mixture was left at room temperature for 30 minutes. In a control experiment, caspase 3 mixed with DMSO instead of the test compound was used. […] Time course of the decomposition of the substrate were measured on a fluorescent photometer (Corona Denki, MTP-32, excitation wavelength/360 nm, emission waverangeth/450 nm or SLT, fluostar, excitation wavelength/380 nm, emission wavelength/460 nm) and an enzyme activity of the test compound-added group relative to the control was calculated.

The target of assay [2] is T1, caspase 3. Briefly: Examination of caspase 3 inhibitory mode in the presence of zinc (Lineweaver-Burk plots). It counts as biochemical. As to the method: (§2) Solution A comprising composition of 50 mM HEPES, pH 7.5, 10% (w/v) saccharose, and 0.1% (w/v) 3-[(3-cholamidopropyl)dimethylammonio]-1-propane sulfonate (CHAPS) was used as the base of a liquid for enzymatic reaction with adding a test compound, if necessary. A 10 ng/100 µL human caspase 3 solution (Solution B: Solution A + 10 mM dithiothreitol (DTT)) and a test compound at different concentrations were mixed and the mixture was left at room temperature for 30 minutes. In a control experiment, caspase 3 mixed with DMSO instead of the test compound was used. Then, 100 µL of 50 µM Ac-Asp-Glu-Val-Asp-MCA (Solution A, Peptide Kenkyusyo, 3171-v) as a substrate solution were added thereto to start reaction. Time course of the decomposition of the substrate were measured on a fluorescent photometer (Corona Denki, MTP-32, excitation wavelength/360 nm, emission waverangeth/450 nm or SLT, fluostar, excitation wavelength/380 nm, emission wavelength/460 nm) and an enzyme activity of the test compound-added group relative to the control was calculated.
(§3) The effects of the test compound at various concentrations on the enzyme activity were measured in a similar manner to the case in the absence of zinc ion as described in the section 1). However, a substrate solution containing 3 mM ZnSO4 was used.
The caspase 3 inhibitory mode of Compound A in the presence of zinc was examined according to the methods 1) and 2) of Example 3. […] The inhibitory mode was analyzed with Lineweaver-Burk plots (double reciprocal plots).
The caspase 3 inhibitory mode of Compound B in the presence of zinc was examined according to the methods 1) and 2) of Example 3. […] The inhibitory mode was analyzed with Lineweaver-Burk plots (double reciprocal plots).
The caspase 3 inhibitory mode of Compound C in the presence of zinc was examined according to the methods 1) and 2) of Example 3. […] The inhibitory mode was analyzed with Lineweaver-Burk plots (double reciprocal plots).

A further assay relates to rat hippocampal neuron. Nature of the assay: Apoptosis inhibitory action: suppression of DNA fragmentation induced by Etoposide. It is filed as cell-based. As to the method:
Cultured rat hippocampal neuron was prepared according to a usual method (Neurochem. Int., 31(5), 715-722, 1997). Brain was taken out of a fetus of rat at day 19 of gestation, and hippocampus was picked up under a stereomicroscope. The hippocampus was treated with an enzyme, dispersed by pipetting several times, and cell clusters were removed through a filter to prepare a cell suspension. The cell was cultured at a concentration of 1.2 x 10^5 cells/cm^2 in a 12-well plate coated with polylysine. A "culture medium for neuron" manufactured by Sumitomo Bakelite Co., Ltd. was used as the culture liquid. The neuronal cell at 13 to 16 days of culture was used. Etoposide was employed for inducing apoptosis of the neuronal cell. The induction of DNA fragments was evaluated as a marker of apoptosis.
Cell stimulation was carried out by replacing the cell culture medium with a serum-free medium containing 3 µg/mL Etoposide. After 6 hours from the start of the stimulation, the cell was recovered. TaKaRa ApopLadder Ex kit was used for the extraction of fragmented DNA. The fragmented DNA were subjected to electrophoresis followed by staining with CYBR Green, and the fluorescence intensity of the DNA was measured by means of a scanner manufactured by Molecular Dynamics Co.

Assay [3] concerns the target T1, caspase 3. Briefly: Screening method of caspase 3 inhibitor, in the presence of zinc ion (substrate solution containing 3 mM ZnSO4). It is filed as biochemical. Particulars: for IC50: in the presence of zinc ion; for ratio (enzyme activity (+Zn)/enzyme activity (-Zn)): test compound 100 µM, 25 ng/100 µL human caspase 3, reaction time 15 minutes. As to the method: as §1
as §2, with “A 10 ng/100 µL human caspase 3 solution (Solution B: Solution A + 10 mM dithiothreitol (DTT)) and a test compound at different concentrations were mixed and the mixture was left at room temperature for 30 minutes.” left out
as §3
The enzyme activities calculated in the absence of zinc ion (-Zn) and in the presence of zinc ion (+Zn) were compared (enzyme activity (+Zn)/enzyme activity (-Zn)).

Usually IC50 stands for the concentration needed to halve the response being measured. In the case of `CCCN1C(=O)C2(Oc3c(c(=O)n(CCC)c4ncccc34)S2)C(=O)c2cccnc21` (centres unmarked) [Compound C, 1,5'-dipropylspiro[1,8-naphthyridine-3(2H),2'-[1,3]oxathiolo[4,5-c][1,8]naphthyridine]-2,4,4' (1H,5'H)-trione], the inhibition at 100 µM at caspase 3 [1] turned out to be 17%. Also, the “caspase 3 inhibitory mode” value on caspase 3 [2] is “substrate-competitive and reversible”. Besides, the IC50 in the assay on rat hippocampal neuron (Rattus norvegicus, Hippocampal neuron, 3 µg/mL Etoposide, 6 hours, compound at 10, 25, 50 µM, no zinc added to medium) is 17000 nM; on caspase 3 [3], 1200 nM.

As to `c1ccc2[nH]c(Cc3nc4ccccc4[nH]3)nc2c1` [Compound A, bis(1H-benzimidazol-2-yl)methane], the “caspase 3 inhibitory mode” value on caspase 3 [2] is “substrate-competitive and reversible”. The “ratio (enzyme activity (+Zn)/enzyme activity (-Zn))” value at caspase 3 [3] worked out at 0.37.

With `CCCN1C(=O)C2(Oc3c(c(=O)n(CCC)c4ccccc34)S2)C(=O)c2ccccc21` (centres unmarked) [Compound D], the inhibition at 100 µM at caspase 3 [1] is 13%. Moreover, in the assay with rat hippocampal neuron (at a concentration of 33.3 µM, added together with Etoposide), the apoptosis inhibitory action entry is “strong apoptosis inhibitory action”. In addition, on caspase 3 [3], the half-maximal inhibitory concentration (IC50) worked out at 350 nM.

As to `COC(=O)C[C@H](NC(=O)[C@H](C)NC(=O)[C@@H](NC(=O)OCc1ccccc1)C(C)C)C(=O)CF` [z-VAD.FMK, z-Val-Ala-Asp(OMe)-CH2F, reference compound] (Cbz-Val-Ala-Asp(OMe)-CH2F), the IC50 is 510 nM against caspase 3 [1] (in the absence of zinc ion, reaction time 30 minutes) and 550 nM at caspase 3 [3] (reaction time 30 minutes). In addition, at caspase 3 [3] (comparison of presence and absence of zinc ion), the “effect of zinc ion on the caspase 3 inhibitory activity” value is recorded as “no remarkable enhancing effect”.

For `ON=C(c1nc2ccccc2[nH]1)c1nc2ccccc2[nH]1` [Compound B, bis(1H-benzimidazol-2-yl)ketone oxime], the “caspase 3 inhibitory mode” value at caspase 3 [2] is “substrate-competitive and reversible”. Also, on caspase 3 [3], the “ratio (enzyme activity (+Zn)/enzyme activity (-Zn))” value is recorded as 0.44.
